Data as given in US10577364B2, “Crystalline form of fused pyridine derivative's maleate and uses thereof” (priority 2015, dated 2020).

Experiments:
[1] = Kinetic solubility in H2O at RT; settings: for pH / Form Change: H2O, RT; for Form Change: residual solids by XRPD
Description: (§1) Kinetic solubility of the Crystalline Form of Formula I and N-(4-(2,3-dihydro-1H-pyrrolo[2,3-b]pyridin-4-yloxy)-3-fluorophenyl)-5-(4-fluorophenyl)-4-oxo-1,4-dihydropyridine-3-carboxamide (the Compound of Formula II) was studied in H2O at RT. After stirring approximate 4 mg solid in per 2 mL H2O at RT for a set amount of time, 0.6 mL suspension was centrifuged with the residual solids analyzed by XRPD and the concentrations in supernatants measured by high performance liquid chromatography (HPLC).

[2] = Pharmacokinetic study, oral administration to fasted SD rats; settings: for AUC(0-inf) / AUC(0-t) / Cmax / Tmax / half-life: SD, rat, plasma, po, 50 mg/kg
Description: (§2) The Compound of Formula II and the Crystalline Form of Formula I were ground to fine particles. The material content (purity) was not less than 99.0%. Sodium carboxymethyl cellulose was medical supply graded.
(§3) Experimental animals: SD rats were divided to a Compound of Formula II group and a Crystalline Form of Formula I group, with both groups consisting of three males and three females.
(§4) Pharmaceutical preparation: each compound was formulated in 0.5% (w/v) aqueous sodium carboxymethyl cellulose and the final concentration of each compound was 10 mg/mL.
(§5) Administration and sample collection: each suspension was administered orally to fasted SD rats at a dose equivalent to 50 mg/kg the Compound of Formula II in a dose volume of 5 mL/kg. The blood samples were collected in EDTA-K pre anticoagulant tubes just before dosing (0 h) and at 0.5, 1, 1.5, 2, 4, 6, 8 and 24 hrs after dosing. The plasma from these samples was separated by centrifugation at 3000 rpm for 10 min at 4° C. The plasma samples were collected and stored at −80° C. until analysis.
(§6) Samples were analyzed by HPLC. Chemical ingredients were separated on a C18 DIKMA Platisil column (250×4.6 mm, 5 μm). An Isocratic mobile phase system consisting of acetonitrile-water (55:45) with 0.02 mol/L of sodium dihydrogen phosphate (adjusted pH to 6.0 by using sodium hydroxide solution) employed for sample analysis. The sample injection volume was 20 μL and the detection wavelength was 302 nm.

[3] = Thermodynamic stability, stress test storage, XRPD; type: physicochemical; settings: 40° C.±2° C./RH75%±5%, aluminum-plastic composite film bag, 0 m, 1 m, 2 ms, 3 ms, or 6 ms
Description: About 500 g of the Crystalline Form of Formula I was placed into a bag of aluminum-plastic composite film, and the bag was stored under stress test conditions of 40° C.±2° C./RH75%±5% for 0 m, 1 m, 2 ms, 3 ms, or 6 ms.

[4] = Long term stability storage, XRPD; type: physicochemical; settings: 25° C.±2° C./RH60%±10%, aluminum-plastic composite film bag, 0 m to 36 ms
Description: About 500 g of the Crystalline Form of Formula I was placed into a bag of aluminum-plastic composite film, and the bag was stored under conditions of 25° C.±2° C./RH60%±10% for 0 m, 3 ms, 6 ms, 9 ms, 12 ms, 18 ms, 24 ms, or 36 ms.

[5] = in vivo; settings: SD, rat, po, 50 mg/kg
Description: as §2, §3, §4, §5, §6

[6] = physchem; settings: water, thermodynamic from solid
Description: as §1

[7] = water, thermodynamic from solid

O=C(Nc1ccc(Oc2ccnc3c2CCN3)c(F)c1)c1c[nH]cc(-c2ccc(F)cc2)c1=O [The Compound of Formula II, N-(4-(2,3-dihydro-1H-pyrrolo[2,3-b]pyridin-4-yloxy)-3-fluorophenyl)-5-(4-fluorophenyl)-4-oxo-1,4-dihydropyridine-3-carboxamide]
pH ([1]; 1 h): 7.2 | Form Change ([1]; 1 h): No | pH ([1]; 4 hrs): 7.3 | Form Change ([1]; 4 hrs): No | pH ([1]; 24 hrs): 7.3 | Form Change ([1]; 24 hrs): No | solubility kinetic at 1 h [1, 7]: 0.8 µg/mL | solubility kinetic at 4 h [1, 7]: 1.1 µg/mL | solubility kinetic at 24 h [1, 7]: 0.5 µg/mL | AUC(0-inf) ([2]; female): 18200 ± 4600 ng·h/mL | AUC(0-t) ([2]; female): 9700 ± 6300 ng·h/mL | Cmax ([2]; female): 1900 ± 1100 ng/mL | Tmax ([2]; female): 6 ± 2 h | half-life ([2]; female): 4.7 ± 3.7 h | AUC(0-inf) ([2]; male): 17100 ± 7000 ng·h/mL | AUC(0-t) ([2]; male): 10100 ± 2900 ng·h/mL | Cmax ([2]; male): 2200 ± 600 ng/mL | Tmax ([2]; male): 4.5 ± 2.6 h | half-life ([2]; male): 6.4 ± 2.6 h

O=C(Nc1ccc(Oc2ccnc3c2CCN3)c(F)c1)c1c[nH]cc(-c2ccc(F)cc2)c1=O.O=C(O)/C=C\C(=O)O [The Crystalline Form of Formula I, N-(4-(2,3-dihydro-1H-pyrrolo[2,3-b]pyridin-4-yloxy)-3-fluorophenyl)-5-(4-fluorophenyl)-4-oxo-1,4-dihydropyridine-3-carboxamide maleate]
Crystalline Form determined by XRPD after storage (thermodynamic stability) [3]: purely the Crystalline Form of formula I | Crystalline Form determined by XRPD after storage (long term stability) [4]: purely the Crystalline Form of formula I | AUC(0-inf) ([5]; female): 49300 ± 22200 ng·h/mL | AUC(0-t) ([5]; female): 46400 ± 21600 ng·h/mL | Cmax ([5]; female): 7500 ± 700 ng/mL | Tmax ([5]; female): 2 h | half-life ([5]; female): 3.7 ± 2.8 h | AUC(0-inf) ([5]; male): 17000 ± 6100 ng·h/mL | AUC(0-t) ([5]; male): 15900 ± 5100 ng·h/mL | Cmax ([5]; male): 3900 ± 700 ng/mL | Tmax ([5]; male): 2.7 ± 1.2 h | half-life ([5]; male): 1.7 ± 0.9 h | solubility kinetic at 1 h [6]: 59 µg/mL | solubility kinetic at 4 h [6]: 47.8 µg/mL | solubility kinetic at 24 h [6]: 98.3 µg/mL | pH ([1]; 1 h): 4.3 | Form Change ([1]; 1 h): No | pH ([1]; 4 hrs): 4.1 | Form Change ([1]; 4 hrs): No | pH ([1]; 24 hrs): 3.8 | Form Change ([1]; 24 hrs): No | Absorption compared with the Compound of Formula II ([2]; SD rats, oral, dose equivalent to 50 mg/kg the Compound of Formula II): higher absorption than the Compound of Formula II
